# Where a SMILES comes first, the peptide text is derived from it. [ ]: non-standard residue; d: D form. The star is where a group is joined. Dolaproine = CO[C@@H]([C@@H]1CCCN1)[C@@H](C)C(=O)O; Dil = CC[C@H](C)[C@H](NC)[C@@H](CC(=O)O)OC; X1 = C[C@@H](N*)[C@@H](O)c1ccccc1; NMeV = CN[C@H](C(=O)O)C(C)C
# Assays:
# [1] = relative to 2-ME; cited from earlier work
# [2] = oral administration; cited from earlier work
# [3] = cited from earlier work
# [4] = system: C4-2 castrate resistant prostate cancer (CRPC) cells; test: Relative viability after drug dose matrix (CellTiter-Glo, Bliss Independence) in C4-2 cells; format: cell-based; conditions: for concentrations at which the more than additive reduction occurs / reduction in cancer cell viability of maytansinoid with Plk1 inhibitor versus each alone: C4-2 cells, with onvansertib; for reduction in cancer cell viability of maytansinoid with Plk1 inhibitor versus each alone: five days, free agents, FIGS. 5A and 5B
# Experimental: All cell lines were cultured in a humidified incubator at 37° C. and with 5% CO2, were maintained sub-confluent and used for no more than 20 passages. Media was supplemented with 10% fetal bovine serum (FBS), contained 2 mM glutamine and lacked antibiotics, unless otherwise noted. A549, BT-20, CCD-1112sk, CCD-18co, CFPAC1, HCT 116, HeLa, HT-29, HT55, MCF7, MDA-MB-157, MDA-MB-231, MDA-MB-415, MDA-MB-436, MDA-MB-453, MDA-MB-468, SW48, T98G, U-2 OS, U-87 MG, CAOV3, COV362, and JIMT1 cells were grown in DMEM; 22RV1, AU565, C4-2, CAL33, COL0205,HCC38, HCT-15, KYSE150, LNCaP, LOVO, NCI-H1299, PC-3, ZR-75-1, HCC1419, HCC1569, HCC1954, ZR7530, OVCAR-4, OVCAR8 cells were grown in RPMI 1640; HT1197, HT1376, J82, UMUC3 cells were grown in MEM; OV90, TOV122D, TOV21G cells were grown in 1:1 MCDB105:Medial99 15% FBS; 59M, OAW28, OAW42 cells were grown in Advanced DMEM 0.023 IU/ml insulin; ES2, SKOV3 cells were grown in McCoy's 5A; JHOS2, JHOS4 cells were grown in 1:1 DMEM:HamF12; HUVEC cells were grown in EBM with EGM™-2 BULLETKIT™
# For dose response experiments and experiments that examine synergy as a measure of change in relative viability, cells were grown in 384-well plates in triplicate. The following day the cells were subjected to a drug dose matrix that consisted of increasing concentrations of a Plk inhibitor, increasing concentrations of a microtubule polymerization inhibitor, and all pairwise combinations. Drugs were dissolved in DMSO and diluted in the appropriate cell growth media while maintaining a constant final concentration of DMSO. After five days, relative viability was assessed using […]-GLO™ (Promega) Luminescent Cell Viability Assay according to the manufacturer's recommendations. Luminescence was measured using an […]™ M200 Pro plate reader (Tecan Group Ltd.). […] The dose response plots (for example FIG. 1A) show sensitivity to increasing concentrations of a microtubule polymerization inhibitor in the absence or presence of a constant amount of Plk inhibitor. Bars represent the standard error of the mean. The concentration of Plk inhibitor chosen to presented was based on a ˜20-30% reduction of viability when that drug was used at that dose in isolation. The entire amount of greater-than-additive response observed in the dose matrix is the integrated volume between the observed and expected surfaces generated by the response matrix and is also known as Bliss Volume. Bliss Volume synergy metrics are presented in FIG. 3 as the fractional change in volume between the expected and observed response surfaces.
# [5] = system: panel of >50 other kinases; conditions: in vitro; cited from earlier work
# [6] = system: HCT116, NCI-H460, and taxane-resistant CXB1 colon carcinoma xenografts; design: dose or concentration left out as unconfirmed; conditions: cited from earlier work
# [7] = system: Her2+ trastuzumab-resistant breast cancer; conditions: via CDK1-dependent phosphorylation and inactivation of Bcl-2/xL; cited from earlier work
# [8] = system: growth factor activated endothelial cells; conditions: cited from earlier work
# [9] = system: Her2+ breast cancer cell lines; test: Viability dose matrix in panel of six Her2+ breast cancer cell lines; format: cell-based; conditions: DM1 with onvansertib, five days, majority of six cell lines, FIGS. 8A-8F
# Experimental: (§1) All cell lines were cultured in a humidified incubator at 37° C. and with 5% CO2, were maintained sub-confluent and used for no more than 20 passages. Media was supplemented with 10% fetal bovine serum (FBS), contained 2 mM glutamine and lacked antibiotics, unless otherwise noted. […]
# (§2) For dose response experiments and experiments that examine synergy as a measure of change in relative viability, cells were grown in 384-well plates in triplicate. […] After five days, relative viability was assessed using […]-GLO™ (Promega) Luminescent Cell Viability Assay according to the manufacturer's recommendations. Luminescence was measured using an […]™ M200 Pro plate reader (Tecan Group Ltd.). […]
# [10] = system: ovarian cancer cell lines; test: Viability dose matrix in panel of 14 ovarian cancer cell lines; format: cell-based; conditions: DM4 with onvansertib, five days, FIGS. 6A-6N
# Experimental: as §1, §2
# [11] = system: bladder cancer cell lines; test: Viability dose matrix in panel of four bladder cancer cell lines; format: cell-based; conditions: MMAE with onvansertib, five days, FIGS. 7A-7D
# Experimental: as §1, §2
# [12] = system: UMUC3; test: Viability dose matrix in UMUC3 bladder cancer cells; format: cell-based; conditions: MMAE with onvansertib, five days, FIG. 7D
# Experimental: as §1, §2
# [13] = system: T47D cells; conditions: read-out: EC50 for caspase activation; cited from earlier work
# [14] = system: T47D cells; conditions: read-out: GI50, cell proliferation; cited from earlier work
# [15] = system: variety of tumors, including those that express the multidrug resistance (MDR) phenotype; conditions: read-out: IC50 against a variety of tumors; cited from earlier work
smiles,measurement,setting,value
COc1cc2c(cc1O)CC[C@@H]1[C@@H]2CC[C@]2(C)C(=O)CC[C@@H]12 [2-methoxyestrone],loss in activity in vitro on oxidation of 2-ME to 2-methoxyestrone,[1],10-to 100 fold
COc1ccc(S(=O)(=O)Nc2cccnc2Nc2ccc(O)cc2)cc1 [ABT-751],overall mean Tmax,[2],about 2 h
same,maximum tolerated dose,"[3]; daily schedule, phase I",250 mg/day
CC[C@@H]1C(=O)N(C)c2cnc(Nc3ccc(C(=O)N[C@H]4CC[C@H](N5CCN(CC6CC6)CC5)CC4)cc3OC)nc2N1C(C)C [BI6727],effect of the combination of TH588 with a Plk1 inhibitor,"[4]; each Plk1 inhibitor in combination with TH588, relative viability",more than additive
same,inhibitory activity against a panel of >50 other kinases,[5],no inhibitory activity
same,growth of human carcinoma xenografts,[6],significantly inhibits the growth
same,effect on T-DM1 resistance,[7],overcomes T-DM1 resistance
same,recommended dose for further development,"[3]; advanced solid tumors, i.v. once every 3 weeks, based on overall tolerability",300 mg
same,MTD,"[3]; advanced solid tumors, i.v. once every 3 weeks",400 mg
same,MTD in combination with afatinib,[3]; advanced solid tumors,300 mg
COc1cc(C(=O)c2c(C)oc3c(O)c(OC)ccc23)cc(OC)c1OC [BNC-105],selectivity for growth factor activated endothelial cells compared to quiescent HUVECs,[8],81 fold
COc1cc2cc(c1Cl)N(C)C(=O)C[C@H](OC(=O)[C@H](C)N(C)C(=O)CCS)C1(C)O[C@H]1[C@H](C)[C@@H]1C[C@@](O)(NC(=O)O1)[C@H](OC)/C=C/C=C(\C)C2 (stereo partly shown) [DM1],concentrations at which the more than additive reduction occurs,[4],sub-nanomolar
same,reduction in cancer cell viability of maytansinoid with Plk1 inhibitor versus each alone,[4],more than the additive reduction
same,response to combined Plk1 inhibitor and DM1,[9],greater than additive response
COc1cc2cc(c1Cl)N(C)C(=O)C[C@H](OC(=O)[C@H](C)N(C)C(=O)CCC(C)(C)S)C1(C)O[C@H]1[C@H](C)[C@@H]1C[C@@](O)(NC(=O)O1)[C@H](OC)/C=C/C=C(\C)C2 (stereo partly shown) [DM4],concentrations at which the more than additive reduction occurs,[4],sub-nanomolar
same,reduction in cancer cell viability of maytansinoid with Plk1 inhibitor versus each alone,[4],more than the additive reduction
same,cell lines with greater than additive responses to the drug combination,[10],Ten of fourteen
"CC[C@H](C)[C@@H]([C@@H](CC(=O)N1CCC[C@H]1[C@H](OC)[C@@H](C)C(=O)N[C@H](C)[C@@H](O)c1ccccc1)OC)N(C)C(=O)[C@@H](NC(=O)[C@@H](NC)C(C)C)C(C)C [MMAE, monomethyl auristatin E] (H-[NMeV]V[Dil][Dolaproine]-X1)",response to the combination in bladder cancer cell lines,[11],Varying amounts of greater than additive responses
same,response to the combination in UMUC3,[12],very notable response
COc1ccc(N(C)c2nc(Cl)nc3ccccc23)cc1 [MPI-0441138],EC50,[13],2 nM
same,GI50,[14],2 nM
COc1ccc(NS(=O)(=O)c2c(F)c(F)c(F)c(F)c2F)cc1F [T138067],IC50,[15],11 to 165 nM
